Tested on: retinal neovascularization
Experiment: rat pup model of retinopathy of prematurity (oxygen-induced retinopathy)
Format: in vivo
Conditions: for inhibition of retinal neovascularization: newborn rat pups exposed to varying oxygen
Method: Anecortave acetate was tested for its angiostatic efficacy in a rat pup model of retinopathy of prematurity (Penn, at al., Investigative Ophthalmology & Visual Science, “The Effect of an Angiostatic Steroid on Neovascularization in a Rat Model of Retinopathy of Prematurity,” Vol. 42(1):283-290, January 2001). Newborn rat pups were placed in an atmosphere of varying oxygen content. The rats received a single intravitreal injection of vehicle or anecortave acetate (500 μg) upon return to room air (day 14) or 2 days later (day 16). There was significant retinal neovascularization in the rats that received vehicle injections.

CC(=O)OCC(=O)[C@@]1(O)CC[C@H]2[C@@H]3CCC4=CC(=O)CC[C@]4(C)C3=CC[C@@]21C [Anecortave acetate, 4,9(11)-pregnadien-17α,21-diol-3,20dione-21-acetate]
preretinal neovascularization (neovascular score) (local administration, rat model of oxygen-induced retinopathy, FIG. 1): inhibits preretinal neovascularization | inhibition of retinal neovascularization (single intravitreal injection 500 μg 2 days after return to room air (day 16)): 50% | inhibition of retinal neovascularization (single intravitreal injection 500 μg upon return to room air (day 14)): 66%

From US20070043006A1, “Formulations of non-steroidal anti-inflammatory agents to treat pathologic ocular angiogenesis” (priority 2003, published 2007)
